This note sets out measurements from ChEMBL document CHEMBL1201862, “PubChem BioAssay data set” (2004).

Structures are written as SMILES. Activity calls are given as the source filed them.

Among the targets are Cytochrome P450 3A4 (Homo sapiens, UniProt P08684); Cytochrome P450 2D6 (Homo sapiens, UniProt P10635); Cytochrome P450 2C9 (Homo sapiens, UniProt P11712).
In the next data set the target is Genome polyprotein (dengue virus type 2, UniProt P29990). Kind of data set: flavivirus cap methylation enzyme inhibition – biochemical, confirmation dose response, primary screen (AID 588689). The class given is functional.
Chain of Genome polyprotein (P29990 2492-3391 limits assumed): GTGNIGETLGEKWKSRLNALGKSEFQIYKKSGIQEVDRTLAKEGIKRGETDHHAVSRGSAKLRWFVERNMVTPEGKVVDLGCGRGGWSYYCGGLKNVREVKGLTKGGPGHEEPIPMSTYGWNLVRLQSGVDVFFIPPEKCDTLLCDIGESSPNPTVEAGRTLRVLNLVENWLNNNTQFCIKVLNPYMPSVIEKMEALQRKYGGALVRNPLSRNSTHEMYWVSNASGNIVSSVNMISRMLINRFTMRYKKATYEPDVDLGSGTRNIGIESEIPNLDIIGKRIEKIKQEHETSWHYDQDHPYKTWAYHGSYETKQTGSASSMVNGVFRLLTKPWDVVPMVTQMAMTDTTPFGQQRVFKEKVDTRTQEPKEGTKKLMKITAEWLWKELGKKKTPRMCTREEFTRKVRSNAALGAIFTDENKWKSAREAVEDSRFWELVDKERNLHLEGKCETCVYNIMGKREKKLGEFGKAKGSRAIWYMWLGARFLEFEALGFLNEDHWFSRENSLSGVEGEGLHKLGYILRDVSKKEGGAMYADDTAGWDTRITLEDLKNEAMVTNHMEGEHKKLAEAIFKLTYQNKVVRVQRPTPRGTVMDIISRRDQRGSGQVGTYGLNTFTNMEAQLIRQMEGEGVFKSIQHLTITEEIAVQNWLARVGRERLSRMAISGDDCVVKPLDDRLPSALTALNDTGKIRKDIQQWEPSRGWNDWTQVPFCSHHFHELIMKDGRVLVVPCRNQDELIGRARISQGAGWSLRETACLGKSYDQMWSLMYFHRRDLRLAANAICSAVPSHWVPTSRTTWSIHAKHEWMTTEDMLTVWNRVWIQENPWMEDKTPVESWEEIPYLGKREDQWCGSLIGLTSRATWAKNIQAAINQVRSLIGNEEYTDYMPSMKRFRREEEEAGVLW
The next data set has as its system Vero. Kind of data set: cells. The data set is classed as functional. The note with it: Chlorocebus sabaeus.
Data set [1] can be described thus: viability of uninfected HEp-2 cells – cell-based, HTS, cytotoxicity control for RSV inhibitor project, dose response (AID 2410). The data set is classed as functional. The note with it: human respiratory syncytial virus.
A short description of data set [2]: NIH3T3 cell viability loss – ATP luminescence, mouse fibroblasts, counter-screen, dose response (AID 2010).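 Also: cells exposed to compound for about 90 hours before reading.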 The data set is classed as functional, cell-based. Background: Counterscreens check selectivity or assay interference.
The target in a further data set is T1, Cytochrome P450 1A2 (Homo sapiens, UniProt P05177).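 Also: PubChem cytochrome P450 panel assay, CYP1A2 panel member.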
T1 sequence (P05177 whole entry): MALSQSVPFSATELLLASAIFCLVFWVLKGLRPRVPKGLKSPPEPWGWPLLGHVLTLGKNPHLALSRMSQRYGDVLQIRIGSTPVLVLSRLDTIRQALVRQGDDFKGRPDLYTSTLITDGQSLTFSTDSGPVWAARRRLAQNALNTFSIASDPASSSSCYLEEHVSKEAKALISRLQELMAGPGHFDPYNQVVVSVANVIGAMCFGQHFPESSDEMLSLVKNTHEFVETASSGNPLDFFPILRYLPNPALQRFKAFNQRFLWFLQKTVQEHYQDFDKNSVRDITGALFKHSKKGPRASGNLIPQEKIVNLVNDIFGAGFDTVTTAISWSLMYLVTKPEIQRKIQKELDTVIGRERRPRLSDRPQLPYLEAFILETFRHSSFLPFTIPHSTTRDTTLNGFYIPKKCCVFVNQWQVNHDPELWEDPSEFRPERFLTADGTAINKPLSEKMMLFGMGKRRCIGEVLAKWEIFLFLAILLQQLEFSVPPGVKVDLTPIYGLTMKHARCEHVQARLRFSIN

Data set [3] is described as follows: Trypanosoma cruzi growth suppression in host cells – NIH3T3 host cells, beta-gal luminescence, confirmation (AID 2044).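 Also: intracellular parasites grown in NIH/3T3 mouse fibroblasts as host cells; luminescent beta-galactosidase reporter signal from transgenic T. cruzi replicating inside host cells; inhibitors lower the luminescence signal.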 The data set is classed as functional, cell-based.
The target of the next data set is Cytochrome P450 2C19 (Homo sapiens, UniProt P33261). Kind of data set: Cytochrome panel assay with activity outcomes. Panel member name: p450-cyp2c19 Compounds with AC50 equal or less than 10 uM are considered active. To be noted: read-out: AC50. The class given is functional.
Chain of Cytochrome P450 2C19 (P33261 whole entry): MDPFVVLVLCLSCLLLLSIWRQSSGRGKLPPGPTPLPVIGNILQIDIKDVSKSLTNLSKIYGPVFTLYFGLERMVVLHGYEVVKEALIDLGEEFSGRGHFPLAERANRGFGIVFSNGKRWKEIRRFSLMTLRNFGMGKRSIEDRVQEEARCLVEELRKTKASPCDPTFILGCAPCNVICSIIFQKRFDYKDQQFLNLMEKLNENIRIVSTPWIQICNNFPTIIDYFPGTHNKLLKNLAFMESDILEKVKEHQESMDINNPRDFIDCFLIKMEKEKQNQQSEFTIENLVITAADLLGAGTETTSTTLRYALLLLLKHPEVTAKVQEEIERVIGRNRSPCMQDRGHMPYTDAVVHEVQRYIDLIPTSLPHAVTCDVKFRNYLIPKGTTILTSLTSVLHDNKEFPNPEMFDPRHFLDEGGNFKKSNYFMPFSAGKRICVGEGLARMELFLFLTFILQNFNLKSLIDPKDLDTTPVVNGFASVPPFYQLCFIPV
The next data set deals with T2, Protein RecA (Mycobacterium tuberculosis, UniProt P9WHJ3).
T2 sequence (P9WHJ3 whole entry): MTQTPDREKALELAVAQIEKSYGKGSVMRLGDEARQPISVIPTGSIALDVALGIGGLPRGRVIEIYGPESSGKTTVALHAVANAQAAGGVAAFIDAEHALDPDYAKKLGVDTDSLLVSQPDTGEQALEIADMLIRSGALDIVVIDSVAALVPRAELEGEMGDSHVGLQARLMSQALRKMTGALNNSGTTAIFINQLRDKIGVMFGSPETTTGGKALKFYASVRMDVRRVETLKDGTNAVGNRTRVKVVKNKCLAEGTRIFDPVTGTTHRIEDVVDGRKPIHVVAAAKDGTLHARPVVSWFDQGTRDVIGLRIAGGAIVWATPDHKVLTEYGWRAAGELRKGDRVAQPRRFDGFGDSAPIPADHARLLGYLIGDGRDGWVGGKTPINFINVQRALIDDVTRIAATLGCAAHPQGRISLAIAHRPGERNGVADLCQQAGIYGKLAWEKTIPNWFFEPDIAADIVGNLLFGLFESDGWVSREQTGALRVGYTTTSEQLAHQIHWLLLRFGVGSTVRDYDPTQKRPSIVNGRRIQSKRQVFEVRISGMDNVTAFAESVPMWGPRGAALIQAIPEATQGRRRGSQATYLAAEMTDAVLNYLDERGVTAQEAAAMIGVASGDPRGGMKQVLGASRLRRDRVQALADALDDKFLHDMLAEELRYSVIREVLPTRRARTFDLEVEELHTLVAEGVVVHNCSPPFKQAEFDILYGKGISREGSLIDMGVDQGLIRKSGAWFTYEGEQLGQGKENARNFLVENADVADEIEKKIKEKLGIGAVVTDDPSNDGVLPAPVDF
Kind of data set: Fluorescence Cell-Free Homogeneous Dose Retest to Identify Inhibitors of RecA-Intein Splicing Activity. [Related pubchem assays (depositor defined):AID2097, AID2223, AID489010, AID492950]. The class given is functional.

For data set [4], the target named is T3, Replicative DNA helicase DnaB (Mycobacterium tuberculosis, UniProt P9WMR3).
T3 sequence (P9WMR3 whole entry): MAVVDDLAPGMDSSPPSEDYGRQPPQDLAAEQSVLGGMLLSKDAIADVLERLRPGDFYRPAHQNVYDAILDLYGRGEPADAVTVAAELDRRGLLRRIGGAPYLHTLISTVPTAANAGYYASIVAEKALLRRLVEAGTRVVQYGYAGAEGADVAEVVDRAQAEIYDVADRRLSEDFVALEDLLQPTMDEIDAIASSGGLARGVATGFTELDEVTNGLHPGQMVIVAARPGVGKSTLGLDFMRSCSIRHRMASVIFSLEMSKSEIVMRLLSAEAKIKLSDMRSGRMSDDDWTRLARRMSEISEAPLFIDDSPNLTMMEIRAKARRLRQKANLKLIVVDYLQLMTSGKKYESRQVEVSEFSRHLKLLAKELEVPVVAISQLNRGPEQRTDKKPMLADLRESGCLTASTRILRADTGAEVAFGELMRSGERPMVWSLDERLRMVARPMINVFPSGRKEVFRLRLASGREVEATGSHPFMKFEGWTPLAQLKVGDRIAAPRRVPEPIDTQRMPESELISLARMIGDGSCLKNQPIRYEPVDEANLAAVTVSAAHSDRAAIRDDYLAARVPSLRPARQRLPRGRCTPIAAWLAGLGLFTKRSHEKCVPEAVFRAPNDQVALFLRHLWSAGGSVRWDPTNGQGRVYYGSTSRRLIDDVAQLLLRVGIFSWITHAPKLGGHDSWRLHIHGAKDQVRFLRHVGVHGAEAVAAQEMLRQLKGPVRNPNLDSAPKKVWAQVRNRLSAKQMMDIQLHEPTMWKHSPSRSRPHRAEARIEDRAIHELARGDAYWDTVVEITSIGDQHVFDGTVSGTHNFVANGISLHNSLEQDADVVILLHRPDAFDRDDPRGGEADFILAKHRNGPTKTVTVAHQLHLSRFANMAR
Nature of the data set: DnaB intein splicing inhibitors, dose response, biochemical, cell-free fluorescence (AID 449749). The data set is classed as functional.

In data set [5] the target is T4, Rac GTPase-activating protein 1 (Homo sapiens, UniProt Q9H0H5).
T4 sequence (Q9H0H5 whole entry): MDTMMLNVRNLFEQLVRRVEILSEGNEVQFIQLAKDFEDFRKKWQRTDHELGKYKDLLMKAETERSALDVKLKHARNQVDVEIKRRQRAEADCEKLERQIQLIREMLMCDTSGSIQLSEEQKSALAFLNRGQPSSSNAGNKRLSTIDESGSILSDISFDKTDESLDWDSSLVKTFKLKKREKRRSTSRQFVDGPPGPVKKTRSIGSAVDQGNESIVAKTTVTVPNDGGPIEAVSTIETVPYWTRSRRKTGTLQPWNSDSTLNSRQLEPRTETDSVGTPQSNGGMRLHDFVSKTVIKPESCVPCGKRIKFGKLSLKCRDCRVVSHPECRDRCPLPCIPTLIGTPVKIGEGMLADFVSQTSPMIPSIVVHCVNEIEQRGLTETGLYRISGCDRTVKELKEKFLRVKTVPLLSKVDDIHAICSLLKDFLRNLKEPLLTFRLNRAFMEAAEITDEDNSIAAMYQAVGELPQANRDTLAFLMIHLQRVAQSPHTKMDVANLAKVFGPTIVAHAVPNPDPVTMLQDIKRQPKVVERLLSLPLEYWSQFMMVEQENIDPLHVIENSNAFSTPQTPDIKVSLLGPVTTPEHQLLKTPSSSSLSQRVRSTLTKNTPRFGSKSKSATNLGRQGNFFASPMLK
Nature of the data set: blockers of MgcRacGAP-driven Rac1 GTP hydrolysis – biochemical, ADP Hunter fluorescence, primary and confirmatory, confirmation (AID 624330). The data set is classed as functional.

A further data set deals with T5, Protein skinhead-1 (Caenorhabditis elegans, UniProt P34707).
T5 sequence (P34707 whole entry): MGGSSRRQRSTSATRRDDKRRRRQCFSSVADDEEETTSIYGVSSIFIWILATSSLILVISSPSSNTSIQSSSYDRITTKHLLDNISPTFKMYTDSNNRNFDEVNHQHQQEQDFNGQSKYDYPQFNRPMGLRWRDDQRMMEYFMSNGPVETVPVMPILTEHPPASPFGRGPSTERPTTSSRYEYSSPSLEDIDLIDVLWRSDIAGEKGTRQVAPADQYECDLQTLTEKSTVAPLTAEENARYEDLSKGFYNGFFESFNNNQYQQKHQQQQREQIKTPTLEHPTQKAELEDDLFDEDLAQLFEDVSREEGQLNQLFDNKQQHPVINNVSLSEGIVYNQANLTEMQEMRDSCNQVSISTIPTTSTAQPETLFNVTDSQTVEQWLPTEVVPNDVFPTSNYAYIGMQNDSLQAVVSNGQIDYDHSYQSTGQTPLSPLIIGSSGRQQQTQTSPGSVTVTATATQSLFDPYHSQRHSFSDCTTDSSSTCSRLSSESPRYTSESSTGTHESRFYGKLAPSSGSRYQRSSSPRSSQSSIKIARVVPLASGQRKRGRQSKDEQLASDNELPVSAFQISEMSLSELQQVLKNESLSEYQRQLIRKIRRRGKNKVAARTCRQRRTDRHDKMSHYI
The class given is functional.

The target in data set [6] is T6, Fatty acid synthase (Homo sapiens, UniProt P49327). Kind of data set: inhibition of human FAS-TE enzyme activity – biochemical, kinetic fluorescence intensity, dose response (AID 624326).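 Also: rate of fluorescence rise from hydrolysis of a fluorogenic O-methyl fluorescein ester substrate.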 The data set is classed as functional.
T6 sequence (P49327 whole entry): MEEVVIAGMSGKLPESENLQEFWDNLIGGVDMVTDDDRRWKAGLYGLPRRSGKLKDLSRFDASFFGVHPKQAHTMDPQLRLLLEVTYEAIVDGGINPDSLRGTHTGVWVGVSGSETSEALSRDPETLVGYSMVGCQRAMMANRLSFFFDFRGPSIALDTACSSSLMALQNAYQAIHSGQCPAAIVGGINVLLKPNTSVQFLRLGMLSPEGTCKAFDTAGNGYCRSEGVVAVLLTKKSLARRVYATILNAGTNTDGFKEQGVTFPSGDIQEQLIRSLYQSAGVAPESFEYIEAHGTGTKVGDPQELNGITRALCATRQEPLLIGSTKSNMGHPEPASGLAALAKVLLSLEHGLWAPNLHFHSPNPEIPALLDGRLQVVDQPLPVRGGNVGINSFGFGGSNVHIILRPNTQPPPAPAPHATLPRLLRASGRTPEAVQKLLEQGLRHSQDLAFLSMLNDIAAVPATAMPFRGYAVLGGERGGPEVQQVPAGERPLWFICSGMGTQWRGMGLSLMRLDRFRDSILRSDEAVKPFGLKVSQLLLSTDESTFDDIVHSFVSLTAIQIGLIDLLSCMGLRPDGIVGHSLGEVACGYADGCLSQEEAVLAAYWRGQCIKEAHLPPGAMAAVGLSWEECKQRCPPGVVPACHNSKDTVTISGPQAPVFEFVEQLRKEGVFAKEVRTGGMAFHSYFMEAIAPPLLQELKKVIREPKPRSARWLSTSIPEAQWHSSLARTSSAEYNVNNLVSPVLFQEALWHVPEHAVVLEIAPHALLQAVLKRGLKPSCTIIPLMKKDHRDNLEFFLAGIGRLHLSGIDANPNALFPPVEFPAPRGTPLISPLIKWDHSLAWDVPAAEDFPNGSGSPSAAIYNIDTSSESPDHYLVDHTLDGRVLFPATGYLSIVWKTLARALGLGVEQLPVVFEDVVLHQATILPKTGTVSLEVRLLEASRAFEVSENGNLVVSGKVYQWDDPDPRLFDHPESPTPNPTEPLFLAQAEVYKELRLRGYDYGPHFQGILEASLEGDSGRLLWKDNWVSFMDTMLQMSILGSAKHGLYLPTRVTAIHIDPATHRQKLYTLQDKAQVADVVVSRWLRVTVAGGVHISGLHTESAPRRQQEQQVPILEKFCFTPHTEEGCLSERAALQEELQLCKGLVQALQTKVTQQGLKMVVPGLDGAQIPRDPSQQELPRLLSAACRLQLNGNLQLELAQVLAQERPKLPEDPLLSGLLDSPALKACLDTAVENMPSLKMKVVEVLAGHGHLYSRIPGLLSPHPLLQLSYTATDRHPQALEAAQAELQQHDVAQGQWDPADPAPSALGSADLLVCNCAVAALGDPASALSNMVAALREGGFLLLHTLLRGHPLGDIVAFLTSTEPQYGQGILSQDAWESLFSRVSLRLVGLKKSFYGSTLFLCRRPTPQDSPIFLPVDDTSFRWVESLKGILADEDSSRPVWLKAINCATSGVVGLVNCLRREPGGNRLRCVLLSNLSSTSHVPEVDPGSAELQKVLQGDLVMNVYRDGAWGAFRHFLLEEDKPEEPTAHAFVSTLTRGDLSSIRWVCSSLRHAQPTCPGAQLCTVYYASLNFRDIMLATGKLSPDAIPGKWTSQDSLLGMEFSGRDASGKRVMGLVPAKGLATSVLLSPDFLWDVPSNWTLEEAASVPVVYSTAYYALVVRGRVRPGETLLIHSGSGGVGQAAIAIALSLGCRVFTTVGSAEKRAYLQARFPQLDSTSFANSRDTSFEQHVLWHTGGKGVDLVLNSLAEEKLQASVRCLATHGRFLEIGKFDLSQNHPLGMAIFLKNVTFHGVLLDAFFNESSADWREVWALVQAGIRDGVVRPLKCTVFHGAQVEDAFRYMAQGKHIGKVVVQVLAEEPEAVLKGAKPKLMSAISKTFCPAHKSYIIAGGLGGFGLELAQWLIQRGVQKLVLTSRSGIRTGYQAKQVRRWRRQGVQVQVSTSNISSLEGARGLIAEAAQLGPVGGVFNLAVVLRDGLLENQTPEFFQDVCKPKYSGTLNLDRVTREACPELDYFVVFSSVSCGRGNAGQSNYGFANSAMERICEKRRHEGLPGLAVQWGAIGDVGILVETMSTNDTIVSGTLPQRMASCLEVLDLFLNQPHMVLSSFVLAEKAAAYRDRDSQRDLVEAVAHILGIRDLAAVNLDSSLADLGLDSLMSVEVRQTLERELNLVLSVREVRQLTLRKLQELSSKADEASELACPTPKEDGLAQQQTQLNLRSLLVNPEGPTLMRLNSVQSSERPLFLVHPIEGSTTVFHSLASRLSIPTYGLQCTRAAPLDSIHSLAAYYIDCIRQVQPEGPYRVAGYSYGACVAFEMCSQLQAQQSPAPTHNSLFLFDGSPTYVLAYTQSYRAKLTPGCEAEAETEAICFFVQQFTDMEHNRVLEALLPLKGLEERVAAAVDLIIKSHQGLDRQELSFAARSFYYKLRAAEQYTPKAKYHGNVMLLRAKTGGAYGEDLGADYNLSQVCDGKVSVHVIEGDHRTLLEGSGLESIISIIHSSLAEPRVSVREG
The target of data set [7] is T6, Fatty acid synthase. Nature of the data set: inhibition of human FAS-TE enzyme activity – biochemical, endpoint fluorescence intensity, uHTS hits, dose response (AID 624327).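 Also: fluorescence from hydrolysis of an O-methyl fluorescein acyl ester substrate by the enzyme.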 The data set is classed as functional.
The next data set has as its system BJ. Kind of data set: cells. To be noted: bj. The class given is functional, cell-based, Homo sapiens.

Chain of Cytochrome P450 2C9 (P11712 whole entry): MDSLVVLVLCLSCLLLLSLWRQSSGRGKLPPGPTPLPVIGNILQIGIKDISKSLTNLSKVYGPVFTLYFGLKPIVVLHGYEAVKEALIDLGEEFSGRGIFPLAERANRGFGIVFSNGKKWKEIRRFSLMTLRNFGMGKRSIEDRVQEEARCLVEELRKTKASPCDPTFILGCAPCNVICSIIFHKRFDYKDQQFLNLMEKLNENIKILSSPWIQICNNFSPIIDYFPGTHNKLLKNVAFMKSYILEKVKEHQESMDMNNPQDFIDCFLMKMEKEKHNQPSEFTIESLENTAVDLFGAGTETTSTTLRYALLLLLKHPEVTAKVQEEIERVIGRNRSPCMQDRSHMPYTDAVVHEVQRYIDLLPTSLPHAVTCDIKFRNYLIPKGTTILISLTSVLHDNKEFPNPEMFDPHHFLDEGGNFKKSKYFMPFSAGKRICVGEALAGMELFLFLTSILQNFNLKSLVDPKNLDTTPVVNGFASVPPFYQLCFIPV
Chain of Cytochrome P450 2D6 (P10635 whole entry): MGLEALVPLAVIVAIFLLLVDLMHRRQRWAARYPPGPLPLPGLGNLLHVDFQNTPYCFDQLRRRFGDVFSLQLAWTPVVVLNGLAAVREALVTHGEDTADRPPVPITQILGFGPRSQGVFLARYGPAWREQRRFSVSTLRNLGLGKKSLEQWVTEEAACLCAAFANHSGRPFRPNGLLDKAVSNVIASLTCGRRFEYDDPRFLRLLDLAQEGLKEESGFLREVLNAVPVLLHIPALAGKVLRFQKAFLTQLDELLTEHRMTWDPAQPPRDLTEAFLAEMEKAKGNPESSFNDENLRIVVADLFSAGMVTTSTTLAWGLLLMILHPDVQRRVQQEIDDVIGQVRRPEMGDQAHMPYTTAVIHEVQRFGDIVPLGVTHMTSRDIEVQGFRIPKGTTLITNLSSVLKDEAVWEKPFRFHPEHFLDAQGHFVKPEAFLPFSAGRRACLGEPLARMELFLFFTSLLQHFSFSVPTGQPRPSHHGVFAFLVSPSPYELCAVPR

Consider `CC(=C\c1ccccc1)/C=C1/SC(=S)N(C(C(=O)O)C(C)C)C1=O` (centres undefined), for which the IC50 (as a rule, the concentration that inhibits the measured activity by half) at Genome polyprotein was 34.1 µM (active).

As to `CCCCn1nnnc1SCC(=O)c1cc(Cl)ccc1OC`, the AC50 – broadly, the midpoint of the concentration-response curve, whichever way the signal moves – is 14.1 µM (inconclusive) on Cytochrome P450 3A4, 22.4 µM (inconclusive) at Cytochrome P450 2D6 and “inconclusive” on Cytochrome P450 2C9.

In the case of `CNC[C@H](CC1CCCCC1)NC[C@H](NCCC1CCCC1)[C@H](C)O`, the CC50 (as a rule, the concentration that lowers cell viability or growth by half) with Vero was > 25 µM (active).

As to `CC(=O)Nc1ccc(S(=O)(=O)Nc2cccc(-c3nc4cc(C)ccc4o3)c2)cc1`, the values for the CC50 (in the data set with Vero; in data set [1]) were > 25 µM (active) and 9.33 µM (active), respectively.

In the case of `CC1=C(C(=O)Nc2ccccc2F)C(c2ccsc2)C2=C(O)CC(c3ccccc3)CC2=N1` (centres undefined), the results for the EC50 in [2] and in [3] were 8.96 µM (active) and 3.32 µM (active), respectively. Further, the AC50 on Cytochrome P450 1A2 is 11.2 µM (inconclusive); at Cytochrome P450 2C9, “inconclusive”.

Turning to `CCCSc1nc(C)cc(C)c1S(=O)(=O)c1ccccc1C`, the figures for the AC50 at Cytochrome P450 1A2, on Cytochrome P450 2D6 and on Cytochrome P450 2C9 were 11.2 µM (inconclusive), 39.8 µM (inconclusive) and “inconclusive”, respectively.

With `CCOC(=O)c1ccc(CNC(=O)C2CCCCC2C(=O)OCC(F)(F)F)o1` (centres undefined), the AC50 on Cytochrome P450 2C19 was 39.8 µM (inconclusive); on Cytochrome P450 2D6, 25.1 µM (inconclusive); at Cytochrome P450 2C9 it was “inconclusive”.

For `O=C1NC(=O)C(=Cc2ccccc2Oc2ccc(F)cc2)C(=O)N1`, the IC50 on Genome polyprotein is 37.5 µM (active).

Turning to `Cc1ccc(N2C(=O)NC(=O)/C(=C/c3ccc(OC(=O)c4cccs4)cc3)C2=O)cc1`, the EC50 – broadly, the midpoint of the concentration-response curve – at Protein RecA was 0.772 µM (active). Moreover, in data set [4], the AC50 is 0.64 µM (active). Further, the IC50 on Genome polyprotein was 55.4 µM (active).

Take `CCOc1cc2c(cc1O)C(=NO)CC1C2CCC2(C)C(O)CCC12` (centres undefined): the CC50 with Vero is 4.99 µM (active).

In the case of `Cc1ccc(CNC(=O)CN2C(=O)COc3ccc(C)cc32)cc1`, the AC50 on Cytochrome P450 2D6 was 28.2 µM (inconclusive); on Cytochrome P450 2C9 it was “inconclusive”.

Turning to `O=C(CS(=O)(=O)c1cccc(Cl)c1)Nc1ccccc1Cl`, the AC50 is 22.4 µM (inconclusive) on Cytochrome P450 1A2, 17.8 µM (inconclusive) on Cytochrome P450 2D6 and “inconclusive” at Cytochrome P450 2C9.

Consider `O=C1NN(c2ccccc2)C(=O)C1=Cc1ccccc1O`, for which the figures for the IC50 (in data set [5]; on Genome polyprotein) were 81.3 µM (active) and 34.6 µM (active), respectively.

Take `Cc1ccc(S(=O)(=O)N2C[C@H]3[C@H]4C(=O)N(c5ccccc5)C(=O)[C@H]4CC(=O)[C@H]3[C@@H]2c2cccc3ccccc23)cc1`: the values for the IC50 on Protein skinhead-1, on Fatty acid synthase [6] and on Fatty acid synthase [7] were > 100 µM (inactive), 15.6 µM (active) and 21.6 µM (inactive), respectively.

In the case of `COc1cccc(/C=N/n2c(=S)n(C)c3cc(C)c(C)cc32)c1OC`, the AC50 entry at Cytochrome P450 2C9 is reported as “inconclusive”.

As for `COc1cc2c(c(OC)c1OC)-c1ccc(=O)c(O)cc1C(NC(C)=O)CC2` (centres undefined), the EC50 with BJ is 0.126 µM (inconclusive).
